This note sets out measurements from patent US8637521B2, “Substituted piperazin-2,5-diones and their use as multifunctional bioactive compounds” (priority 2006, dated 2014).

Where “and” joins values, the source holds several entries; their conditions need not be identical. Equal entries are not always repeated.

In assay [1] the test system is antibodies to ovalbumin. Nature of the assay: Adjuvant activity with ovalbumin immunization (Example 6). The format is in vivo, mice (C57B16). Particulars: for Stimulation index: Table 5, ovalbumin alone = 1.00. The method, then: Adjuvant activity was tested on 5 groups of mice (C57B16). Each group consisted of 5 animals. Three immunizations were performed:
• 1. Group with Complete Freund's Adjuvant (CFA) • 2. Group with ovalbumin (OVA egg) (25 micrograms/mouse) • 3. Group with CFA+ovalbumin (25 micrograms/mouse) • 4. Group with ovalbumin (25 micrograms/mouse)+peptide 1 microgram/mouse • 5. Group with ovalbumin (25 micrograms/mouse)+peptide 10 micrograms/mouse Second Immunization:
The same set 21 days after first immunization by injection of 12.5 micrograms of ovalbumin/mouse to groups 2-5.
The same set 35 days after first immunization by injection of 12.5 micrograms of ovalbumin/mouse to groups 2-5.
On day 42, the total blood from each mouse was collected. The blood was pooled from each group of mice. The stimulation index of each group was compared. The stimulation index was calculated as a ratio between optical density (OD=1) of diluted pools of groups 3-5 to the optical density (OD=1) of diluted pools of group 2 (control with no adjuvant).

Assay [2] deals with CFU-S population in the bone marrow. Nature of the assay: Spleen colony formation (CFU-S) by bone marrow cells of peptide-treated intact donor mice. The format is in vivo, (CBA×C57 B1) F1 mice. The conditions noted are these: Table 2, donor treated i/p. The protocol:
The effect of tested substances on intact bone marrow was studied in vivo. […] Two days after administration of preparation, the mice were killed. Bone marrow suspension was prepared and injected intravenously to lethally irradiated mice. The colony forming activity was evaluated at day 8. Test animals were (CBA×C57 B1) F1 mice (30 mice per trial, average from 3 tests).

Assay [3] relates to hemopoietic precursor cells. Nature of the assay: Exogenous spleen colonies from bone marrow irradiated ex vivo with 1 Gy. The format is in vivo. The protocol:
In this study, the method of exogenous spleen colonies was applied. A suspension of intact bone marrow cells was irradiated ex vivo in the dose of 1 Gy. Different doses of Neogen or cyclic peptides were injected IP, 1M, subcutaneous or introduced per os to lethally irradiated recipients within an hour after the injection of irradiated bone marrow. Colonies were counted on day 8. All data in each group was the mean of three tests.

In assay [4] the test system is antibodies to ovalbumin. In words: Adjuvant activity with ovalbumin immunization (Example 7). It is filed as in vivo, mice. Particulars: Table 6. The method, then:
Adjuvant activity was tested on 6 groups of mice. Each group consisted of 5 animals. Three immunizations were performed as follows:
• 1. Mouse Nos. 1 to 5—Complete Freund's adjuvant (CFA=control) • 2. Mouse Nos. 6 to 10—ovalbumin (OVA egg) 25 micrograms per animal+adjuvant 100 micrograms per animal • 3. Mouse Nos. 11 to 15—ovalbumin 25 micrograms per animal+CFA • 4. Mouse Nos. 16 to 20—ovalbumin 25 micrograms per animal • 5. Mouse Nos. 21 to 25—ovalbumin 25 micrograms per animal+adjuvant 1 microgram per animal • 6. Mouse Nos. 26 to 30—ovalbumin 25 micrograms per animal+adjuvant 10 micrograms per animal Second Immunization:
The same set 21 days after first immunization by injection of 12.5 micrograms of ovalbumin/mouse to mouse nos. 6 to 30.
The same set 35 days after first immunization by injection of 12.5 microgram of ovalbumin/mouse to mouse nos. 6 to 30.
On day 42, blood samples from each mouse were collected. The stimulation index of each group was compared. The stimulation index was calculated by dividing the test pooled sera dilution yielding OD=1 by the dilution of pooled sera from mice immunized without the adjuvant, yielding OD=1.

Assay [5] deals with Anti-OVA antibody titers. Nature of the assay: Adjuvant activity, anti-OVA antibody titers by ELISA (Example 8). The format is in vivo, Balb/c mice. The conditions noted are these: for Anti-protein antibody titer (pooled sera) / Stimulation index / Anti-protein antibody titer (for individual sera): Table 7. The method, then: Adjuvant activity was tested on 11 groups of Balb/c mice (obtained from Stolbovaya Breeding Station). Each group consisted of 7 animals. Three immunizations were performed as follows:
• Group 1—ovalbumin 25 micrograms per animal (Mouse Nos. 1 to 7) • Group 2—ovalbumin 25 micrograms per animal+CFA (Complete Freund's adjuvant) (Mouse Nos. 8 to 14) • Group 3—ovalbumin 25 micrograms per animal+adjuvant of compound 33a 100 micrograms per animal (Mouse Nos. 15 to 21) • Group 4—ovalbumin 25 micrograms per animal+adjuvant of compound 33a 10 micrograms per animal (Mouse Nos. […]) • Group 5—ovalbumin 25 micrograms per animal+adjuvant of compound 33a 1 microgram per animal (Mouse Nos. […]) • Group 6—ovalbumin 25 micrograms per animal+adjuvant of compound 33b 100 micrograms per animal (No. 36 to 42) • Group 7—ovalbumin 25 micrograms per animal+adjuvant of compound 33b 10 micrograms per animal (Mouse Nos. 43 to 49) • Group 8—ovalbumin 25 micrograms per animal+adjuvant of compound 33b 1 microgram per animal (Mouse Nos. 50 to 56) • Group 9—ovalbumin 25 micrograms per animal+adjuvant of compound 17 100 micrograms per animal (Mouse Nos. 57 to 63) • Group 10—ovalbumin 25 micrograms per animal+adjuvant of compound 1710 micrograms per animal (Mouse Nos. 64 to 70) • Group 11—ovalbumin 25 micrograms per animal+adjuvant of compound 171 microgram per animal (Mouse Nos. 71 to 77) Second Immunization:
The same set 14 days after first immunization by injection of 12.5 micrograms of ovalbumin/mouse to mouse nos. 1 to 77.
The same set 28 days after first immunization by injection of 12.5 micrograms of ovalbumin/mouse to mouse nos. 1 to 77.
On day 35 after first immunization, blood samples from each mouse were collected.
OVA (10 micrograms/ml) solution in 0.05 M sodium carbonate buffer (pH 9.5) was added to plate wells, 0.1 ml per well and incubated at 4° C. for 16 hours. The OVA solution was then removed and the plate was washed 4 times with PBS containing 0.05% Tween-20. Such washing was performed after each incubation stage. Serial twofold dilutions of sera (starting from 1:100 or 1:1000) were added to the wells, 0.1 ml per well and incubated at 37° C. for 1 hour followed by incubation (1 hour, 37° C.) with HRP-conjugated goat anti-mouse IgG antibodies (0.1 ml, 1 mg/ml in PBS) and then with a 0.1 mL substrate solution −0.05% H2O2 and 0.05% o-phenylene diamine in 0.05M sodium citrate buffer with a pH of 4.5. The reaction was stopped by adding 100 μl of 12.5% H2SO4. Absorbance was measured at a wavelength of 492 nm using a Multiscan Plus MKII (Flow Laboratories, Great Britain). Significant anti-protein antibody titer (for individual sera) was assessed as the serum dilution produced an absorbance value of more than 0.1 ODU and the minimum exceeds three times the control level. The antibody titer was presented and −log of dilution (FIGS. 2 and 3). The stimulation index for pooled sera was calculated by dividing the test pooled sera dilution producing OD=1 by the dilution of pooled sera from mice immunized without the adjuvant, producing OD=1. The results of the adjuvant activities of cyclo-L-Ala-L-Glu-(L-Trp-OH) (Compound 17), cyclo-L-Lys(N-acetyl-Glycosamine-N-acetyl-muramil)-L-Glu-(L-Trp-OH) (Compound 33a) and cyclo-D-Lys(N-acetyl-Glycosamine-N-acetyl-muramil)-D-Glu-(L-Trp-OH) (Compound 33b) are shown in Table 7 and the adjuvant activities of cyclo [L-Lys(Palmitoyil)-L-Glu(D-Trp-OH)] (Compound 26a) and cyclo [D-Lys(Palmitoyil)-D-Glu(D-Trp-OH)] (Compound 26b) are shown in Table 8 as well as in FIG. 4 which includes the results of the adjuvant activities of cyclo-L-Lys-L-Glu-(L-Trp-OH) (compound 19). It is noted that the peptides of compounds 26a and 26b are soluble in 0.1% NH4OH at a concentration of 1 mg per 1 to 2 ml.

As for `C[C@@H]1NC(=O)[C@H](CCC(=O)N[C@@H](Cc2c[nH]c3ccccc23)C(=O)[O-])NC1=O.[Na+]` [cyclo-LAla-LGlu-(LTrp-ONa), cyclo-L-Ala-L-Glu-(L-Trp-ONa)], the Stimulation index in assay [1] (ovalbumin + peptide 1 μg/mouse (group 4)) worked out at 1.18; in assay [1] (ovalbumin + peptide 10 μg/mouse (group 5)), 1.74. The “increase of titers of antibodies to ovalbumin” value in assay [1] (matches stimulation index 1.74 at 10 μg/mouse) worked out at 74%. Moreover, the “% suppression” value in assay [2] amounted to 0%. Further, the “Colony count CFU-8 - S per 10^5 cells M ± M” value in assay [2] (control 11.2 ± 0.4, colonies day 8) was found to be 11.7 ± 0.8 per 10^5 cells. In addition, the Colony count was determined as 8.0 ± 0.4 in assay [3] (10 μg/kg IP, unirradiated 11.9 ± 0.4, 1 Gy alone 6.2 ± 0.6); 9.6 ± 0.7 in assay [3] (100 μg/kg IP); 11.7 ± 0.6 in assay [3] (100 μg/kg per/os). The “% stimulation” value in assay [3] (10 μg/kg IP, unirradiated = 100, 1 Gy alone = 0) is 67.2%; in assay [3] (100 μg/kg IP) it was 80.7%; in assay [3] (100 μg/kg per/os), 98.3%.
On to `C[C@@H]1NC(=O)[C@H](CCC(=O)N[C@@H](Cc2c[nH]c3ccccc23)C(=O)O)NC1=O` [Compound 17, cyclo-L-Ala-L-Glu-(L-Trp-OH)], for which the Stimulation index in assay [4] (adjuvant 1 microgram per animal) came out at 1.18; in assay [4] (adjuvant 10 micrograms per animal) it was 1.74; in assay [4] (adjuvant 100 micrograms per animal, ovalbumin alone = 1.0) it was 1.14; in assay [5] (1 μg per animal), 2.6; in assay [5] (10 μg per animal), 1.9; in assay [5] (100 μg per animal, no adjuvant = 1), 2.3. Further, the “adjuvant activity (FIG. 4), doses at which active” value in assay [5] (FIG. 4) is “active at 1, 10 and 100 μg/kg”. Further, the “Anti-protein antibody titer (pooled sera)” value in assay [5] (1 μg per animal) is recorded as 4.8; in assay [5] (10 μg per animal) it was 4.5; in assay [5] (100 μg per animal, no adjuvant 4.5), 4.8. Besides, the “Anti-protein antibody titer (for individual sera)” value in assay [5] (OVA + adjuvant 1 μg per animal, −log of dilution) is 5.1 (3×) and 4.2 and 4.5 (2×) and 5.4; in assay [5] (OVA + adjuvant 10 μg per animal, −log of dilution), 4.8 and 4.2 and 4.1 and 4.5 (2×) and 5.4 and 3.9; in assay [5] (OVA + adjuvant 100 μg per animal, titer as −log of dilution, one value per mouse) it was 4.5 and 4.2 (3×) and 5.1 (2×) and 4.8.
